Source: ChEMBL document CHEMBL1201862, “PubChem BioAssay data set” (2004)
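Interpolation was linear, between the two tested concentrations surrounding the appropriate level; five concentrations were tested over 48 hours in 96-well plates. At the GI50, growth is halved.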 Active and inactive are the calls of the source. Rule as the data show it: active = GI50 up to about 1.1 µM and inactive = higher.

Assays:
Assay in all cases: NCI-60 cell line screen, 48 h
KM12 = tested on: KM12
MDA-MB-435 = tested on: MDA-MB-435
UACC-257 = tested on: UACC-257
EKVX = tested on: EKVX
SNB-19 = tested on: SNB-19
NCI-H226 = tested on: NCI-H226
HCC 2998 = tested on: HCC 2998
CCRF-CEM = tested on: CCRF-CEM
SF-539 = tested on: SF-539
MCF7 = tested on: MCF7
OVCAR-5 = tested on: OVCAR-5
SW-620 = tested on: SW-620
SF-268 = tested on: SF-268
NCI-H522 = tested on: NCI-H522
SNB-75 = tested on: SNB-75
ACHN = tested on: ACHN
Malme-3M = tested on: Malme-3M
Hs-578T = tested on: Hs-578T
SK-OV-3 = tested on: SK-OV-3
SF-295 = tested on: SF-295
CAKI-1 = tested on: CAKI-1
SK-MEL-5 = tested on: SK-MEL-5
SN12C = tested on: SN12C
COLO 205 = tested on: COLO 205
PC-3 = tested on: PC-3
LOX IMVI = tested on: LOX IMVI
OVCAR-4 = tested on: OVCAR-4
786-0 = tested on: 786-0
M14 = tested on: M14
HCT-15 = tested on: HCT-15
A498 = tested on: A498
HOP-62 = tested on: HOP-62
TK-10 = tested on: TK-10
RXF 393 = tested on: RXF 393
NCI/ADR-RES = tested on: NCI/ADR-RES
HOP-92 = tested on: HOP-92
A549 = tested on: A549
MDA-N = tested on: MDA-N
HT-29 = tested on: HT-29
IGROV-1 = tested on: IGROV-1
SK-MEL-2 = tested on: SK-MEL-2
MOLT-4 = tested on: MOLT-4
RPMI-8226 = tested on: RPMI-8226
OVCAR-3 = tested on: OVCAR-3
MDA-MB-231 = tested on: MDA-MB-231
OVCAR-8 = tested on: OVCAR-8
UO-31 = tested on: UO-31
T47D = tested on: T47D
SR = tested on: SR
BT-549 = tested on: BT-549
NCI-H23 = tested on: NCI-H23
SK-MEL-28 = tested on: SK-MEL-28
U-251 = tested on: U-251
DU-145 = tested on: DU-145
HL-60 = tested on: HL-60
UACC-62 = tested on: UACC-62
HCT-116 = tested on: HCT-116
K562 = tested on: K562
NCI-H460 = tested on: NCI-H460

COC1(CC[C@H](C)COC2OC(CO)C(O)C(O)C2O)O[C@H]2C[C@H]3[C@@H]4CC=C5C[C@@H](OC6OC(CO)C(OC7OC(C)C(O)C(O)C7O)C(O)C6OC6OC(C)C(O)C(O)C6O)CC[C@]5(C)[C@H]4CC[C@]3(C)[C@H]2[C@@H]1C (stereo partly drawn)
GI50 (KM12): 2.47 µM (inactive)
GI50 (MDA-MB-435): 1.77 µM (inactive)
GI50 (UACC-257): 5.51 µM (inactive)
GI50 (EKVX): 19.5 µM (inactive)
GI50 (SNB-19): 3.46 µM (inactive)
GI50 (NCI-H226): 5.73 µM (inactive)
GI50 (HCC 2998): 6.32 µM (inactive)
GI50 (CCRF-CEM): 11.1 µM (inactive)
GI50 (SF-539): 1.96 µM (inactive)
GI50 (MCF7): 8.45 µM (inactive)
GI50 (OVCAR-5): 4.2 µM (inactive)
GI50 (SW-620): 2.67 µM (inactive)
GI50 (SF-268): 3.24 µM (inactive)
GI50 (NCI-H522): 2.31 µM (inactive)
GI50 (SNB-75): 1.86 µM (inactive)
GI50 (ACHN): 12 µM (inactive)
GI50 (Malme-3M): 3.45 µM (inactive)
GI50 (Hs-578T): 1.9 µM (inactive)
GI50 (SK-OV-3): 2.82 µM (inactive)
GI50 (SF-295): 4.29 µM (inactive)
GI50 (CAKI-1): 1.48 µM (inactive)
GI50 (SK-MEL-5): 4.98 µM (inactive)
GI50 (SN12C): 7.76 µM (inactive)
GI50 (COLO 205): 6.25 µM (inactive)
GI50 (PC-3): 3.28 µM (inactive)
GI50 (LOX IMVI): 1.9 µM (inactive)
GI50 (OVCAR-4): 3.78 µM (inactive)
GI50 (786-0): 2.42 µM (inactive)
GI50 (M14): 3.12 µM (inactive)
GI50 (HCT-15): 2.68 µM
GI50 (A498): 23.5 µM (inactive)
GI50 (HOP-62): 1.87 µM (inactive)
GI50 (TK-10): 35.6 µM (inactive)
GI50 (RXF 393): 4.57 µM (inactive)
GI50 (NCI/ADR-RES): 3.67 µM (inactive)
GI50 (HOP-92): 1.9 µM (inactive)
GI50 (A549): 1.99 µM (inactive)
GI50 (MDA-N): 2.88 µM (inactive)
GI50 (HT-29): 2.52 µM (inactive)
GI50 (IGROV-1): 6.73 µM (inactive)
GI50 (SK-MEL-2): 3.78 µM (inactive)
GI50 (MOLT-4): > 23.5 µM (inactive)
GI50 (RPMI-8226): 2.32 µM (inactive)
GI50 (OVCAR-3): 6.1 µM (inactive)
GI50 (MDA-MB-231): 5.05 µM (inactive)
GI50 (OVCAR-8): 3.37 µM (inactive)
GI50 (UO-31): 2.47 µM (inactive)
GI50 (T47D): 2.45 µM (inactive)
GI50 (SR): > 100 µM (inactive)
GI50 (BT-549): 4.88 µM (inactive)
GI50 (NCI-H23): 5.53 µM (inactive)
GI50 (SK-MEL-28): 3.77 µM (inactive)
GI50 (U-251): 2.4 µM (inactive)
GI50 (DU-145): 2.42 µM (inactive)
GI50 (HL-60): 8.55 µM (inactive)

O=c1[nH]c(=O)n(C/C=C/CBr)nc1Br
GI50 (KM12): 14.9 µM (inactive)
GI50 (MDA-MB-435): 13.6 µM (inactive)
GI50 (UACC-257): 12.3 µM (inactive)
GI50 (EKVX): 15.1 µM (inactive)
GI50 (SNB-19): 14.7 µM (inactive)
GI50 (NCI-H226): 13.9 µM (inactive)
GI50 (HCC 2998): 14.9 µM (inactive)
GI50 (CCRF-CEM): 7.74 µM (inactive)
GI50 (SF-539): 14 µM (inactive)
GI50 (MCF7): 10.1 µM (inactive)
GI50 (OVCAR-5): 16.9 µM (inactive)
GI50 (SW-620): 14.4 µM (inactive)
GI50 (SF-268): 14.1 µM (inactive)
GI50 (NCI-H522): 4.33 µM (inactive)
GI50 (SNB-75): 12 µM (inactive)
GI50 (ACHN): 13 µM (inactive)
GI50 (Malme-3M): 14.2 µM (inactive)
GI50 (Hs-578T): 19 µM (inactive)
GI50 (UACC-62): 13.8 µM (inactive)
GI50 (SF-295): 17.2 µM (inactive)
GI50 (CAKI-1): 11.9 µM (inactive)
GI50 (SK-MEL-5): 13.2 µM (inactive)
GI50 (SN12C): 14.8 µM (inactive)
GI50 (COLO 205): 14.2 µM (inactive)
GI50 (PC-3): 12.2 µM (inactive)
GI50 (LOX IMVI): 1.81 µM (inactive)
GI50 (HCT-116): 13 µM (inactive)
GI50 (OVCAR-4): 10.4 µM (inactive)
GI50 (786-0): 12.6 µM (inactive)
GI50 (M14): 13.9 µM (inactive)
GI50 (HCT-15): 14.5 µM
GI50 (A498): 13.5 µM (inactive)
GI50 (HOP-62): 21.9 µM (inactive)
GI50 (TK-10): 17.7 µM (inactive)
GI50 (K562): 15.8 µM (inactive)
GI50 (RXF 393): 12 µM (inactive)
GI50 (NCI/ADR-RES): 17.6 µM (inactive)
GI50 (HOP-92): 13.4 µM (inactive)
GI50 (A549): 15.8 µM (inactive)
GI50 (MDA-N): 14.1 µM (inactive)
GI50 (HT-29): 12.9 µM (inactive)
GI50 (IGROV-1): 15.9 µM (inactive)
GI50 (SK-MEL-2): 12.6 µM (inactive)
GI50 (MOLT-4): 16 µM (inactive)
GI50 (RPMI-8226): 4.08 µM (inactive)
GI50 (OVCAR-3): 11.6 µM (inactive)
GI50 (MDA-MB-231): 3.49 µM (inactive)
GI50 (OVCAR-8): 14.5 µM (inactive)
GI50 (UO-31): 18.5 µM (inactive)
GI50 (T47D): 12.6 µM (inactive)
GI50 (SR): 3.08 µM (inactive)
GI50 (BT-549): 14.5 µM (inactive)
GI50 (NCI-H23): 12.6 µM (inactive)
GI50 (NCI-H460): 17.5 µM (inactive)
GI50 (SK-MEL-28): 14.9 µM (inactive)
GI50 (U-251): 9.4 µM (inactive)
GI50 (DU-145): > 100 µM (inactive)
GI50 (HL-60): 5.87 µM (inactive)
